{"source": "patent US8765779B2", "about": "“Tricyclic derivatives and their pharmaceutical use and compositions” (Cephalon, Inc., priority 2009, dated 2014)", "note": "Where a name gives a salt, the structure may show the parent alone."}
{"smiles": "COc1cccc(S(=O)(=O)c2ccc3c4c(oc3c2)C(C)(C)NCC4)c1", "note": "(as salt: HCl) [Example 16, 7-[(3-methoxyphenyl)sulfonyl]-1,1-dimethyl-1,2,3,4-tetrahydro[1]benzofuro[2,3-c]pyridine]", "melting point": "335 °C (dec.)"}
{"smiles": "CC12CCNCC1Oc1ccc(S(=O)(=O)c3ccccc3)cc12", "note": "(stereo not drawn) (as salt: hydrochloride) [Example 62, 4a-Methyl-6-(phenylsulfonyl)-1,2,3,4,4a,9a-hexahydro[1]benzofuro[2,3-c]pyridine hydrochloride]", "melting point": "236 to 238 °C (dec.)"}
{"smiles": "CC1(C)CNC2(CCOCC2)c2oc3cc(S(=O)(=O)c4cccc(F)c4)ccc3c21", "note": "(as salt: HCl) [Example 2, 7-[(3-fluorophenyl)sulfonyl]-4,4-dimethyl-2′,3,3′,4,5′,6′-hexahydro-2H-spiro[1-benzofuro[2,3-c]pyridine-1,4′-pyran]]", "melting point": "286 to 288 °C"}
{"smiles": "CC(C)Oc1cccc(S(=O)(=O)c2ccc3c4c(oc3c2)C2(CCOC2)NCC4)c1", "note": "(single isomer, unassigned) (as salt: HCl) [Example 31, 7-{[3-(propan-2-yloxy)phenyl]sulfonyl}-3,4,4′,5′-tetrahydro-2H-spiro[1-benzofuro[2,3-c]pyridine-1,3′-furan]]", "melting point": "261 to 263 °C (dec.)"}
{"smiles": "CC12CCNCC1Oc1cc(S(=O)(=O)c3cccc(F)c3F)ccc12", "note": "(stereo not drawn) (as salt: HCl) [Example 488]", "melting point": "202 to 204 °C"}
{"smiles": "CCCCCOc1cccc(S(=O)(=O)c2ccc3c(c2)OC2CNCCC32)c1", "note": "(stereo not drawn) (as salt: HCl) [Example 557]", "melting point": "199 to 201 °C"}
{"smiles": "NC(=O)COc1cccc(S(=O)(=O)c2ccc3c(c2)OC2CNCCC32)c1", "note": "(stereo not drawn) (as salt: HCl) [Example 563]", "melting point": "237 to 239 °C"}
{"smiles": "COCC1(COC)NCCc2c1oc1cc(S(=O)(=O)c3cccc(F)c3)ccc21", "note": "(as salt: HCl) [Example 39, 7-[(3-fluorophenyl)sulfonyl]-1,1-bis(methoxymethyl)-1,2,3,4-tetrahydro[1]benzofuro[2,3-c]pyridine]", "melting point": "196 to 198 °C"}
{"smiles": "CC(C)Oc1cc(OC(CO)CCl)cc(S(=O)(=O)c2ccc3c(c2)OC2CNCCC32)c1", "note": "(stereo not drawn) (as salt: HCl) [Example 589]", "melting point": "211 to 213 °C (dec.)"}
{"smiles": "CC(C)Oc1cccc(S(=O)(=O)c2ccc3c4c(oc3c2)C2(CCOC2)NCC4)c1", "note": "(single isomer, unassigned) (as salt: HCl) [Example 32, 7-{[3-(propan-2-yloxy)phenyl]sulfonyl}-3,4,4′,5′-tetrahydro-2H-spiro[1-benzofuro[2,3-c]pyridine-1,3′-furan]]", "melting point": "259 to 261 °C (dec.)"}
{"smiles": "CC1(C)NCCc2c1oc1ccc(S(=O)(=O)c3cccc(F)c3)cc21", "note": "(as salt: HCl) [Example 42, 6-[(3-fluorophenyl)sulfonyl]-1,1-dimethyl-1,2,3,4-tetrahydro[1]benzofuro[2,3-c]pyridine]", "melting point": "> 200 °C"}
{"smiles": "CC(C)C(=O)NCC1(C)NCCc2c1oc1cc(S(=O)(=O)c3cccc(F)c3)ccc21", "note": "(stereo not drawn) (as salt: HCl) [Example 491, N-[7-(3-Fluoro-benzenesulfonyl)-1-methyl-1,2,3,4-tetrahydro-benzofuro[2,3-c]pyridin-1-ylmethyl]-isobutyramide]", "melting point": "220 to 225 °C (dec.)"}
{"smiles": "Cc1cc(COc2cccc(S(=O)(=O)c3ccc4c(c3)OC3CNCCC43)c2)no1", "note": "(stereo not drawn) (as salt: HCl) [Example 565]", "melting point": "215 to 217 °C"}
{"smiles": "CN(C)C(=O)CC1(C)NCCc2c1oc1cc(S(=O)(=O)c3cccc(F)c3)ccc21", "note": "(racemic) (as salt: HCl) [Example 40, 2-{7-[(3-fluorophenyl)sulfonyl]-1-methyl-1,2,3,4-tetrahydro[1]benzofuro[2,3-c]pyridin-1-yl}-N,N-dimethylacetamide]", "melting point": "220 to 223 °C"}
{"smiles": "O=S(=O)(c1cccc(OCC2CCOCC2)c1)c1ccc2c(c1)OC1CNCCC21", "note": "(single isomer, unassigned) (as salt: HCl) [Example 548, 7-{[3-(Tetrahydro-2H-pyran-4-ylmethoxy)phenyl]sulfonyl}-1,2,3,4,4a,9a-hexahydro[1]benzofuro[2,3-c]pyridine]", "melting point": "187 to 189 °C"}
